The text below walks through data of patent publication US20230022200A1, “DRUG THAT PREVENTS DIALYSIS SHIFT OR RENAL DEATH” (Toray Industries, Inc., priority 2019, published 2023).

Where two headings read alike, the source gives them in different places.

In series [1] the test system is chronic renal failure patients with primary glomerular disease and nephrosclerosis as primary diseases. The following applies: twice a day for 6 months, cited from earlier work.
The subject of series [2] is renal failure model rats. The following applies: rat, in vivo; cited from earlier work.
For series [3] the following is noted: cited from earlier work.
In series [4] the test system is patients with chronic renal failure. The following applies: cited from earlier work.
Series [5] deals with chronic renal failure rat models. The following applies: combined use with ARBs and ACEIs; cited from earlier work.
Series [6] deals with cats with spontaneous chronic kidney disease. The following applies: in vivo; cited from earlier work.
In series [7] the test system is chronic renal failure patients with primary glomerular disease and nephrosclerosis as primary diseases. The series can be described thus: CASSIOPEIR trial: time to dialysis shift or renal death, hazard ratio of drug and placebo by Cox proportional hazard model. Type of series: in vivo, human. On the procedure:
For the analysis, the full analysis set and Intention-To-Treat (ITT) defined in Nakamoto et al., BMC Nephrology were used, and the hazard ratio (HR) of the drug and placebo was calculated by the Cox proportional hazard model. A lower HR value indicates a higher effectiveness of the drug.
A data set obtained in the CASSIOPEIR trial according to the protocol described in Nakamoto et al., BMC Nephrology was used. Summarizing the protocol of the CASSIOPEIR trial, the targets are chronic renal failure patients with primary glomerular disease and nephrosclerosis as primary diseases, and a BPS sustained-release tablet, TRK-100STP (the same preparation as Careload (trademark) LA Tablets 60 μg (Toray Industries, Inc.)), is administered at 120 μg or 240 μg as BPS per day in two divided doses, morning and evening. Further, this trial was a multicenter, randomized, placebo-controlled, double-blind comparative trial, and carried out in Japan, China, South Korea, Taiwan, Hong Kong, Malaysia, and Thailand.
The duration of drug administration was 2 to 4 years, and the number of patients underwent randomization was 892, and the trial was conducted in 160 sites. Further, the ITT population was the primary analysis target population. The primary endpoint was the time to occurrence of the renal composite endpoint defined by doubling of serum creatinine or end-stage renal disease. The guidelines (2013) of the Japanese Society for Dialysis Therapy were used as a reference to determine the time to shift to dialysis. Specifically, according to the policy that “even with adequate conservative treatment, progressive deterioration of renal function is observed, and the need arises when GFR<15 ml/min/1.73 m^2. However, the introduction of actual blood dialysis is determined by comprehensively judging the symptoms of renal failure, activity in daily life, and nutritional status, and a decision is made when these cannot be avoided except by dialysis therapy,” and finally based on the judgment of the investigator, the time to shift to dialysis and the time to reach renal death were determined. The term “dialysis” as used herein includes peritoneal dialysis, in addition to blood dialysis.

For series [8] the test system is unchanged. The following applies: whole trial, serum creatinine 2.0 to 4.5 mg/dl at entry; 120 μg or 240 μg BPS administration group; cited from earlier work.

Regarding `CC#CCC(C)[C@H](O)/C=C/[C@@H]1[C@H]2c3cccc(CCCC(=O)[O-])c3O[C@H]2C[C@H]1O.[Na+]` (stereo partly drawn) [BPS, Beraprost sodium], the “increase in serum creatinine level during the administration period compared to before the start of administration” value in series [1] (120-μg group) is recorded as 1.069 times; in series [1] (240-μg group), 1.064 times. Besides, the renal tissue damage result in series [2] is “reduces renal tissue damage”. For the same compound, the serum creatinine levels result in series [2] is “suppresses the increase in serum creatinine levels”. Further, the “Cmax and AUC in renal damage patients compared to healthy subjects” value in series [3] (Shimamura et al.) is given as “elevated”. Besides, the half-life in blood entry in series [3] (in vivo) was “about 1 hour”. The “slope of the time-varying straight line of the reciprocal of the serum creatinine level” value in series [4] (20 μg per dose three times a day for 6 months) is given as “becomes gentle”. Further, the shift to dialysis entry in series [4] (serum creatinine 1.9 mg/dl or less before start, 20 μg three times a day) is “did not shift to dialysis for up to 54 months”. The “effect of BPS” value in series [4] (serum creatinine 2.2 mg/dl or more (within the 1.9 to 2.8 mg/dl group)) is “not observed”. Further, the “time to shift to dialysis” value in series [4] (serum creatinine 2.8 mg/dl or more before start, 20 μg three times a day) is on record as not above 24 months. Besides, in series [5], the “effect of angiotensin inhibitors to suppress the progression of renal damage (increase in serum creatinine levels)” value is recorded as “enhances the effect of the angiotensin inhibitors”. In series [6], the renal function result is reported as “suppresses the decline in renal function”. Further, the “HR, time to dialysis shift” value in series [7] (240 μg per day, ACEI used in combination (except patients who further used ARB), all subjects, P value 0.0994) turned out to be 0.60; in series [7] (240 μg per day, ACEI used in combination, Japanese patients, P value 0.0882), 0.49; in series [7] (240 μg, ARB in combination, no ACEI, Japanese partial population, P value 0.3597), 0.79; in series [7] (240 μg, ARB in combination, no ACEI, P value 0.5401), 0.88; in series [7] (plasma BPS 50 pg/ml or more confirmed, eGFR 15 or more and less than 45 ml/min/1.73 m^2 (CKD stages 3b and 4), P value 0.0368), 0.59; in series [7] (plasma BPS 50 pg/ml or more confirmed, serum creatinine less than 3 mg/dl, P value 0.0251), 0.46. For the same compound, the “HR, dialysis shift” value in series [7] (Japanese patients, BMI less than 23, 240 μg, P value 0.0048) is 0.38; in series [7] (Japanese patients, BMI less than 23 and serum albumin less than 3.8 g/dl), 0.29; in series [7] (Japanese patients, serum albumin less than 3.8 g/dl, 240-μg administration, P value 0.1567), 0.50. Besides, the “renal composite endpoints and time to shift to dialysis” value in series [8] is given as “not minimized at all”.

In the case of `CC#CC[C@H](C)[C@H](O)/C=C/[C@@H]1[C@H]2c3cccc(CCCC(=O)[O-])c3O[C@H]2C[C@H]1O.[Na+]` [BPS-314d, sodium (+)-(1R,2R,3aS,8b S)-2,3,3a,8b-tetrahydro-2-hydroxy-1-[(E)-(3S,4S)-3-hydroxy-4-methyl-1-octen-6-ynyl]-1H-cyclopenta[b]benzofuran-5-butyrate], the “Cmax of BPS-314d in plasma relative to BPS” value in series [3] (when BPS is administered to a human) is “¼”. The “AUC of BPS-314d in plasma relative to BPS” value in series [3] (when BPS is administered) is recorded as “¼”.
